Measurements as given in paper PMC8952799, “Two Male-Specific Antimicrobial Peptides SCY2 and Scyreprocin as Crucial Molecules Participated in the Sperm Acrosome Reaction of Mud Crab Scylla paramamosain” (International Journal of Molecular Sciences, 2022).

Legend:
Assay in all cases: modified ELISA on progesterone-coated plate, Scatchard plot
[1] = molecular target: T1, rScyreprocin/rSCY2 mixture; format: binding, Scylla paramamosain; details: protein mixture 0-24 uM on plate coated with 3 ug progesterone; antibody detection; both proteins present
T1 construct: gene scyreprocin; complex not isolated, stoichiometry unknown

rSCY2 = molecular target: T2, rSCY2 (Scylla paramamosain, UniProt A0AAW0UAN3); format: binding; details: protein 0-24 uM on plate coated with 3 ug progesterone; antibody detection; rSCY2 alone
T2 construct: gene SCY2; recombinant His-tagged SCY2, purified

rScyreprocin = molecular target: T3, rScyreprocin (Scylla paramamosain, UniProt A0A7D0GB18); format: binding
T3 construct: recombinant His-tagged scyreprocin, purified
T3 sequence (A0A7D0GB18 1-84): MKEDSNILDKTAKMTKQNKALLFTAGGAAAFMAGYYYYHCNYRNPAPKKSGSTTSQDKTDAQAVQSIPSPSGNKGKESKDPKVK

T2 sequence (A0AAW0UAN3 25-124 limits assumed): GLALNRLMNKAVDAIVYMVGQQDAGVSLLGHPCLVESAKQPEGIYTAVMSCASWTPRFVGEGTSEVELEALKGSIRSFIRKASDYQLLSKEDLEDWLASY

## CC(=O)[C@H]1CC[C@H]2[C@@H]3CCC4=CC(=O)CC[C@]4(C)[C@H]3CC[C@]12C [progesterone]
[1]
  Kd: 72.2 nM
rSCY2
  Kd: 143 nM
rScyreprocin
  Kd: 259 nM
